Results reported in patent US6818642B2, “Benzylaminopyrimidines” (Altana Pharma AG, priority 2001, dated 2004).
In brackets after ≈: the same amount, converted by molar mass.

Legend:
[1] = system: Helicobacter pylori; assay: Agar dilution test (inhibition of growth in vitro on agar plates); type: cell-based; settings: Columbia agar (Oxoid), growth period of 4 days; for MIC50: Helicobacter pylori, 96 h, read-out: approx. MIC50
[2] = system: E. coli; assay: Inhibition of growth in vitro in liquid culture (NanoOrange fluorescence); type: cell-based; settings: Escherichia coli, 24 hours incubation
Method: (§1) Determination of the Inhibition of Growth in Vitro in Liquid Culture
(§2) The principle of the technique is based on the detection of the multiplication of, for example, Helicobacter pylori in liquid culture using BHI/6% FCS medium. The method ensures linear fluorescence increase in the range from […].
(§3) The bacterial culture was distributed with an initial density of 1-3×10^8 microbes/ml in a 96-well MTP in 100 μl aliquots. The test substances in a concentration of […] in a final concentration of 1% DMSO were added to these minicultures. These MTPs were then incubated under microaerobic conditions (Anaerokult, Merck) and with shaking at 37° C. for 24 hours. Following the 24-hour incubation, the minicultures were transferred to filter MTPs and washed twice with isotonic buffer (filtered off with suction, taken up, shaken) and finally were taken up in double-distilled water and shaken, and an aliquot was transferred to a new MTP. This aliquot was admixed with the fluorescent dye NanoOrange (Molecular Probes) in accordance with the manufacturer's instructions. Development of protein detection took piece at 90° C. in a pressure-secured sandwich technique. After the plates had cooled, the fluorescence was measured on a plate reader at 549 nm. […] This calculation was made using origin, sigmoidal curve adaptation by means of the ‘logistic’ algorithm.

[3] = system: Helicobacter pylori; assay: as above; type: cell-based; settings: BHI/6% FCS medium, 24 hours, 37° C., microaerobic, 1% DMSO
Method: as §1, §2, §3

[4] = system: Helicobacter pylori; assay: Helicobacter pylori eradication rate in vivo (urease test); settings: infected gerbils, 50 mg/kg by tube, 3 × daily, 4 days; urease test of antrum tissue four weeks after last treatment
Method: Determination of the Helicobacter Pylori Eradication Rate in Vivo
Gerbils were infected on days 1, 3, and 5 with a suspension containing 108-109 Helicobacter pylori bacteria per animal. […] Beginning on day 36, the gerbils were treated on four successive days—three times daily at 07.30, 11.30, and 15.00 hours—with a placebo or the test substance, using a tube. Four weeks after the last treatment, the gerbils were sacrificed using CO2. A tissue sample of the antrum was introduced into the urease test solution and incubated at 37° C. for 24 hours. Changes in color of the solution from yellow to violet, which resulted from the increase in pH caused by the formation of NH3 from the urease, were detected. The eradication rate was calculated as the percentage of animals whose stomach tissue sample gave a negative urease test.
Conditions Under Which the Animals Were Kept:
Groups of 5-10 gerbils per cage (type IV Macrolon cage) were kept at an ambient temperature of 23±2° C. and a relative humidity of 50±10%. They were fed ad libitum with NAFAG feed No. 9439 for rats and mice (NAFAG AG, CH-2900, Gosseu, Switzerland) and had free access to mains water during the experiment.
The substances administered are referenced in table C below using numbers which correspond to the numbers of the compounds in the examples.

Row | Compound | melting point | MIC50 [1] | Eradication rate [4] | other results
1 | Cc1nc(C)c(Cl)c(NCc2ccc(Oc3ccc4ncc([N+](=O)[O-])n4n3)cc2)n1 [Compound 1, (5-Chloro-2,6-dimethylpyrimidin-4-yl)[4-(3-nitroimidazo[1,2-b]pyridazin-6-yloxy)benzyl]amine] | 203 °C | ~0.005 µg/mL (≈ 0.0117 µM) | 100% | IC50 [2]: > 1000 nM; IC50 [3]: 26 nM
2 | Cc1nc(C)c(Cl)c(NCc2cccc(Oc3ccc4ncc([N+](=O)[O-])n4n3)c2)n1 [Compound 3, (5-Chloro-2,6-dimethylpyrimidin-4-yl)[3-(3-nitroimidazo[1,2-b]pyridazin-6-yloxy)benzyl]-amine] | 222 to 223 °C | ~0.05 µg/mL (≈ 0.117 µM) |  | 
3 | COc1cc(CNc2nc(C)nc(C)c2Cl)ccc1Oc1ccc2ncc([N+](=O)[O-])n2n1 [Compound 4, (5-Chloro-2,6-dimethylpyrimidin-4-yl)[3-methoxy-4-(3-nitroimidazo[1,2-b]pyridazin-6-yloxy)-benzyl]amine] | 229 to 232 °C | ~0.001 µg/mL (≈ 0.00219 µM) | 100% | 
4 | Cc1nc(C)c(Cl)c(NCc2ccc(Oc3ccc4ncc([N+](=O)[O-])n4n3)c(OCC3CC3)c2)n1 [Compound 6, (5-Chloro-2,6-dimethylpyrimidin-4-yl)[3-cyclopropylmethoxy-4-(3-nitroimidazo[1,2-b]pyridazin-6-yloxy)benzyl]amine] | 178 to 180 °C |  |  | 
5 | Cc1nc(C)c(Cl)c(NCc2ccc(Oc3ccc4ncc([N+](=O)[O-])n4n3)c(OC(F)F)c2)n1 [Compound 8, (5-Chloro-2,6-dimethylpyrimidin-4-yl)[3-(1,1-difluoromethoxy)-4-(3-nitroimidazo[1,2-b]pyridazin-6-yloxy)benzyl]amine] | 191 to 193.5 °C | ~0.01 µg/mL (≈ 0.0203 µM) | 100% | 
6 | Cc1nc(C)c(Cl)c(NCc2ccc(Oc3ccc4ncc([N+](=O)[O-])n4n3)c(C)c2)n1 [Compound 9, (5-Chloro-2,6-dimethylpyrimidin-4-yl)[3-methyl-4-(3-nitroimidazo[1,2-b]pyridazin-6-yloxy)-benzyl]amine] | 183 to 185 °C | ~0.001 µg/mL (≈ 0.00227 µM) |  | 
7 | Cc1nc(C)c(Cl)c(NCc2ccc(Oc3ccc4ncc([N+](=O)[O-])n4n3)c(F)c2)n1 [Compound 10, (5-Chloro-2,6-dimethylpyrimidin-4-yl)[3-fluoro-4-(3-nitroimidazo[1,2-b]pyridazin-6-yloxy)-benzyl]amine] | 193 to 196 °C | ~0.01 µg/mL (≈ 0.0225 µM) | 100% | 
8 | Cc1nc(C)c(Cl)c(NCc2ccc(Oc3ccc4ncc([N+](=O)[O-])n4n3)cc2F)n1 [Compound 11, (5-Chloro-2,6-dimethylpyrimidin-4-yl)[2-fluoro-4-(3-nitroimidazo[1,2-b]pyridazin-6-yloxy)-benzyl]amine] | 147 to 149 °C | ~0.01 µg/mL (≈ 0.0225 µM) | 100% | 
9 | Cc1nc(C)c(Cl)c(NCc2ccc(Oc3ccc4ncc([N+](=O)[O-])n4n3)c(OCC(F)(F)F)c2)n1 [Compound 12, (5-Chloro-2,6-dimethylpyrimidin-4-yl)[4-(3-nitroimidazo[1,2-b]pyridazin-6-yloxy)-3-(2,2,2-trifluoroethoxy)benzyl]amine] | 185 to 188 °C | ~0.01 µg/mL (≈ 0.0191 µM) |  | 
10 | COc1cc(CNc2nc(C)nc(C)c2Cl)cc(Oc2ccc3ncc([N+](=O)[O-])n3n2)c1 [Compound 13, (5-Chloro-2,6-dimethylpyrimidin-4-yl)[3-methoxy-5-(3-nitroimidazo[1,2-b]pyridazin-6-yloxy)-benzyl]amine] | 198 to 199 °C |  |  | 
11 | Cc1nc(C)c(Cl)c(NCc2cc(O)cc(Oc3ccc4ncc([N+](=O)[O-])n4n3)c2)n1 [Compound 14, 3-[(5-Chloro-2,6-dimethylpyrimidin-4-ylamino)methyl]-5-(3-nitroimidazo[1,2-b]pyridazin-6-yloxy)phenol] | 263 °C | ~0.01 µg/mL (≈ 0.0226 µM) |  | 
12 | Cc1nc(C)c(Cl)c(NCc2cc(Oc3ccc4ncc([N+](=O)[O-])n4n3)ccc2F)n1 [Compound 15, (5-Chloro-2,6-dimethylpyrimidin-4-yl)[2-fluoro-5-(3-nitroimidazo[1,2-b]pyridazin-6-yloxy)-benzyl]amine] |  | ~0.001 µg/mL (≈ 0.00225 µM) |  | 
13 | COc1cc(CNc2nc(C)nc(C)c2Cl)cc(Br)c1Oc1ccc2ncc([N+](=O)[O-])n2n1 [Compound 16, [3-Bromo-5-methoxy-4-(3-nitroimidazo[1,2-b]pyridazin-6-yloxy)benzyl](5-chloro-2,6-dimethyl-pyrimidin-4-yl)amine] | 230 to 234 °C |  | 100% | 
14 | O=[N+]([O-])c1cnc2ccc(Oc3ccc(CNc4ncncc4Cl)cc3)nn12 [Compound 17, (5-Chloro-pyrimidin-4-yl)-[4-(3-nitro-imidazo[1,2-b]pyridazin-6-yloxy)-benzyl]-amine] | 185 °C |  |  | 
15 | Cc1nc(C)c(Cl)c(NCc2ccc(Oc3ccc4ncc([N+](=O)[O-])n4n3)c(O)c2)n1 [Compound 18, (5-Chloro-2,6-dimethyl-pyrimidin-4-yl)-[4-(3-nitro-imidazo[1,2-b]pyridazin-6-yloxy)-5-hydroxy-benzyl]-amine] | > 114 °C |  |  | 
16 | (5-Chloro-2,6-dimethylpyrimidin-4-yl)[4-methoxy-3-nitroimidazo[1,2-b]pyridazin-6-yloxy)-benzyl]amino [Compound 5] |  |  |  | approx. MIC50 [1]: ~0.05 µg/mL
